Data on one molecule can be found in article PMC9822155, “Synthesis and Antiproliferative Activity against Cancer Cells of Indole-Aryl-Amide Derivatives” (Molecules, 2022).

The subject of the experiment is CDKN1B, CDKN1A and Bax transcription in HT29 cells. Description: Quantitative real-time PCR of CDKN1B, CDKN1A, Bax. In kind it is cell-based, human. The settings on record: HT29, 5 μM, 6 h, normalized to G3PDH, vs. control. Here is the method: To verify whether the epigenetic modifications were related to changes in gene expression, we proceeded with the qtRT-PCR analysis and western blot of related protein products. Transcription levels of CDKN1B, CDKN1A, and Bax were analysed by RT-PCR performed on cDNA of HT29 control and treated with 5 μM of 5 for 6 h.
24 h after seeding, HT29 cells have been treated with 5 µM 5 for 6 h. Total RNA has been isolated by RNeasy Mini kit (Qiagen, Hilden, Germany) according to the manufacturer’s protocol. 1 μg of RNA has been reverse-transcribed with RevertAid First Strand cDNA Synthesis Kit (Fermentas, Ontario, Canada) by using oligo(dT) primers. The cDNA has been analyzed by quantitative Real-Time PCR (qRT-PCR), by employing the LightCycler FastStart DNA Master SYBR Green I Kit and the LightCycler 2.0 instrument (Roche Diagnostics, Manheim, Germany). Gene expression has been quantified by ΔΔCT method, by using G3PDH as the housekeeping gene. The following primers were used: 5′-[…]-3′ (forward) and 5′-[…]-3′ (reverse) for G3PDH detection, 5′-[…]-3′ (forward) and 5′-[…]-3′ (reverse) for p27 detection 5′-[…]-3′(forward) and 5′-[…]-3′ (reverse) for p21 WAF1 detection, 5′-GATGCGTCCACCAAGAAGC-3′ (forward) and 5′-CCGCCACAAAGATGGTCAC -3′ (reverse) for Bax detection.

Turning to `Nc1ccc(CN(Cc2ccc(O)cc2)C(=O)Cc2c[nH]c3ccccc23)cc1` [Compound 5], the “Bax gene expression (fold change)” value was found to be 2.58 ± 0.11, the “CDKN1A gene expression (fold change)” value is on record as 4.16 ± 0.53 and the CDKN1B gene expression entry is recorded as “did not modify the gene expression”.
